One assay concerns the target T1, Rat SERT (Rattus norvegicus, UniProt P31652).
T1 construct: A rat brain without cerebellum (Zivic Laboratories, Inc.—Pittsburgh, Pa.) was homogenized; tissue Zivic Laboratories, Inc; host or cells: rat brain without cerebellum, membranes
In words: Rat brain SERT binding ([3H]-citalopram displacement). The following applies: rat brain membranes without cerebellum, 0.6 nM [3H]-citalopram, 60 min at 25° C.; read-out: Rat SERT Ki. The protocol: The supernatant was removed and re-centrifuged at 15,000 rpm for 30 min. […] Membranes were incubated with 0.6 nM [^3H]-Citalopram plus/minus test compounds for 60 min at 25° C. and harvested by rapid filtration over GF/C glass fiber filters (pretreated with 0.3% polyethylenimine) followed by four washes with ice-cold buffer.

For a further assay, the target named is T2, human H3 receptor (Homo sapiens, UniProt Q9Y5N1).
T2 construct: expressed in transfected cells
T2 sequence (Q9Y5N1 whole entry): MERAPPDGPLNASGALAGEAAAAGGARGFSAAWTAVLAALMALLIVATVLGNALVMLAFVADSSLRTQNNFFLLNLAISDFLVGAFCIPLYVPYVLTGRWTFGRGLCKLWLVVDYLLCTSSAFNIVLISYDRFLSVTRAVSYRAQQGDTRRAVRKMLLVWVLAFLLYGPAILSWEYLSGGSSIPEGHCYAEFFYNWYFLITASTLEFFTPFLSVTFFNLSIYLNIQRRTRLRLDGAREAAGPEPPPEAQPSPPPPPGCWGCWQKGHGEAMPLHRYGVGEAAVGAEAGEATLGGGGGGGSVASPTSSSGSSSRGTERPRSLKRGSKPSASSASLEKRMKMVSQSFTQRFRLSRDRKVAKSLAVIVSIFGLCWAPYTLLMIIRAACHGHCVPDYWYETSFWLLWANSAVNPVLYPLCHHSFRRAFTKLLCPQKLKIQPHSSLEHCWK
In words: H3 receptor binding (N-[3H]-α-methylhistamine displacement). The following applies: membranes of SK-N-MC cells expressing cloned human H3 receptor, 0.8 nM N-[3H]-α-methylhistamine, 60 min at 25° C.

In another assay the target is T3, human SERT (Homo sapiens, UniProt P31645).
T3 construct: expressed in transfected cells; host or cells: HEK293 membranes
T3 sequence (P31645 whole entry): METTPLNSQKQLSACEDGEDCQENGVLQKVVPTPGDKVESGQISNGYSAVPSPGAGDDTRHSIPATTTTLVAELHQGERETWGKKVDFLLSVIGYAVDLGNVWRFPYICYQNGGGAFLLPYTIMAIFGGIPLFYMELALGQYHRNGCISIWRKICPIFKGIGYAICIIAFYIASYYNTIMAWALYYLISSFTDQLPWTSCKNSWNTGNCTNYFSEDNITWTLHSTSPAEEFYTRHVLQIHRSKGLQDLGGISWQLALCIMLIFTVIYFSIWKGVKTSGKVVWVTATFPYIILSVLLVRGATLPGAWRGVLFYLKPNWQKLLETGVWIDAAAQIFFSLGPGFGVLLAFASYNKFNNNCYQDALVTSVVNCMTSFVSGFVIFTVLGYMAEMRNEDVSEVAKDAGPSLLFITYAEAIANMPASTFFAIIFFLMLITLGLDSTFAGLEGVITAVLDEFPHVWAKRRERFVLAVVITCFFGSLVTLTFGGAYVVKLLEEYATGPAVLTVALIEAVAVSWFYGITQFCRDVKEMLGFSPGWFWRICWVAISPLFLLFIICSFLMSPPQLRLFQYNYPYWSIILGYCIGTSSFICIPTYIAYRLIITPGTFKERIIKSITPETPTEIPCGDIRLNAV
In words: Human SERT binding (3H-citalopram displacement). The note with it: HEK293 membranes expressing human SERT, rt 1 h. The protocol: Homogenized HEK293 (Human Embryonic Kidney) membranes expressing the human SERT were incubated with ^3H-citalopram (SERT) at rt for 1 h in 50 mM Tris, 120 mM NaCl, 5 mM KCl (pH 7.4). […] The membranes were washed and the radioactivity was counted as above.

From US20060194837A1, “Tetrahydroisoquinoline compounds” (priority 2004, published 2006) come the findings set out here.

For orientation: Ki means the equilibrium dissociation constant of an inhibitor or competing ligand from its target.

Structures are written as SMILES.

T1 sequence (P31652 whole entry): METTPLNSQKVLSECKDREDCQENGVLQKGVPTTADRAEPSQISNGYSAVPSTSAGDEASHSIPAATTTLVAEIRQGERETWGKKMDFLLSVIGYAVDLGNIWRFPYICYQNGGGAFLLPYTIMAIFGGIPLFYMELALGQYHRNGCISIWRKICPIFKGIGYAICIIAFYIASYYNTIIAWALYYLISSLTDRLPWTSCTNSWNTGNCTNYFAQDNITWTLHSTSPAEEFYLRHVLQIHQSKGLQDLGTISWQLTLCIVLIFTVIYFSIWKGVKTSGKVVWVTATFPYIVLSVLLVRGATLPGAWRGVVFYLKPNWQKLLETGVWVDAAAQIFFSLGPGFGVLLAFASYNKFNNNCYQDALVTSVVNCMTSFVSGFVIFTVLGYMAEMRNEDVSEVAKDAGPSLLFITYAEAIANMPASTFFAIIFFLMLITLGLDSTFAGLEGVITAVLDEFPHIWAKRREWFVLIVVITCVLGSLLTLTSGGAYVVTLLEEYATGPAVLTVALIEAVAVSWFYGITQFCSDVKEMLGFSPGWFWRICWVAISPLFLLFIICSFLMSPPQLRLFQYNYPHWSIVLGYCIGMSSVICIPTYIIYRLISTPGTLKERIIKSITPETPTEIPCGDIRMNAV

On to `COc1ccc(C2CN(C)Cc3cc(OCCCN4CCC(F)CC4)ccc32)cc1F` (racemic) [Example 142, 4-(3-Fluoro-4-methoxy-phenyl)-7-[3-(4-fluoro-piperidin-1-yl)-propoxy]-2-methyl-1,2,3,4-tetrahydro-isoquinoline], for which the Ki on Rat SERT amounted to 4 nM; at human H3 receptor it was 3 nM; on human SERT it was 7 nM.

For `COc1ccc(C2CN(C)Cc3cc(OCCCN4CCCCC4CCO)ccc32)cc1` (centres unmarked) [Example 36, 2-(1-{3-[4-(4-Methoxy-phenyl)-2-methyl-1,2,3,4-tetrahydro-isoquinolin-7-yloxy]-propyl}-piperidin-2-yl)-ethanol], the Ki on Rat SERT is 2 nM; on human H3 receptor, 7 nM; at human SERT, 3 nM.

For the compound `CCN1CCOC(COc2ccc3c(c2)CN(C)CC3c2ccc(OC)cc2)C1` (mixture of isomers) [Example 257, 7-(4-Ethyl-morpholin-2-ylmethoxy)-4-(4-methoxy-phenyl)-2-methyl-1,2,3,4-tetrahydro-isoquinoline], the Ki on Rat SERT came out at 8 nM; on human H3 receptor, 11 nM; on human SERT, 11 nM.

In the case of `CCN(CCCOc1ccc2c(c1)CN(C)CC2c1ccc(OC)cc1)CCOC` (centres unmarked) [Example 40, Ethyl-(2-methoxy-ethyl)-{3-[4-(4-methoxy-phenyl)-2-methyl-1,2,3,4-tetrahydro-isoquinolin-7-yloxy]-propyl}-amine], the inhibition constant Ki at Rat SERT stood at 9 nM; on human H3 receptor, 20 nM; on human SERT it was 8 nM.

Regarding `COc1ccc(C2CN(C)Cc3cc(OCCCN4CCN(C(C)C)CC4)ccc32)cc1` (centres unmarked) [Example 199, 7-[3-(4-Isopropyl-piperazin-1-yl)-propoxy]-4-(4-methoxy-phenyl)-2-methyl-1,2,3,4-tetrahydro-isoquinoline], the Ki at Rat SERT was 2 nM; on human H3 receptor it was 8 nM; on human SERT it was 2 nM.

With `CN1Cc2cc(OCCCN3CCC(F)CC3)ccc2C(c2cccc(F)c2)C1` (centres unmarked) [Example 48, 4-(3-Fluoro-phenyl)-7-[3-(4-fluoro-piperidin-1-yl)-propoxy]-2-methyl-1,2,3,4-tetrahydro-isoquinoline], the Ki turned out to be 31 nM on Rat SERT, 6 nM on human H3 receptor and 118 nM on human SERT.

As to `Cc1ccc(C2CN(C)Cc3cc(OCCCN4CCC(F)CC4)ccc32)cc1` (centres unmarked) [Example 126, 7-[3-(4-Fluoro-piperidin-1-yl)-propoxy]-2-methyl-4-p-tolyl-1,2,3,4-tetrahydro-isoquinoline], the Ki was found to be 3 nM on Rat SERT, 8 nM on human H3 receptor and 15 nM on human SERT.

With `CSc1ccc(C2CN(C)Cc3cc(OCC4CCN(C5CCC5)CC4)ccc32)cc1` (centres unmarked) [Example 104, 7-(1-Cyclobutyl-piperidin-4-ylmethoxy)-2-methyl-4-(4-methylsulfanyl-phenyl)-1,2,3,4-tetrahydro-isoquinoline], the Ki at Rat SERT worked out at 5 nM; at human H3 receptor it was 11 nM; at human SERT it was 3 nM.

As to `COc1ccc(C2CN(C)Cc3cc(OCCCN4CCCC(F)C4)ccc32)cc1` (centres unmarked) [Example 39, 7-[3-(3-Fluoro-piperidin-1-yl)-propoxy]-4-(4-methoxy-phenyl)-2-methyl-1,2,3,4-tetrahydro-isoquinoline], the inhibition constant Ki on Rat SERT, at human H3 receptor and at human SERT was 3 nM each time.

Regarding `CN1Cc2cc(OCCCN3CCC(F)CC3)ccc2C(c2ccc(N3CCOCC3)cc2)C1` (centres unmarked) [Example 134, 7-[3-(4-Fluoro-piperidin-1-yl)-propoxy]-2-methyl-4-(4-morpholin-4-yl-phenyl)-1,2,3,4-tetrahydro-isoquinoline], the figures for the Ki on Rat SERT, at human H3 receptor and at human SERT were 28 nM, 2 nM and 30 nM, respectively.

On to `COc1cccc(C2CN(C)Cc3cc(OCC4CCNCC4)ccc32)c1` (centres unmarked) [Example 241, 4-(3-Methoxy-phenyl)-2-methyl-7-(piperidin-4-ylmethoxy)-1,2,3,4-tetrahydro-isoquinoline], for which the Ki at human H3 receptor turned out to be 39 nM; at human SERT, 10 nM.
